Laboratory results as given in ChEMBL document CHEMBL1133336, “Synthesis of a cyanopeptide-analogue with trypsin activating properties” (Bioorg Med Chem Lett, 2000).

Columns and labels:
Serine protease 1 [1] = target: T1, Serine protease 1 (Homo sapiens, UniProt P07477); assay: Compound was tested for inhibition of trypsin
Plasminogen = Plasminogen (Homo sapiens, UniProt P00747); assay: Compound was tested for inhibition of plasmin
Prothrombin = Prothrombin (Homo sapiens, UniProt P00734); assay: Compound was tested for inhibition of thrombin
Serine protease 1 [2] = target: T1, Serine protease 1; assay: Percent increase in the activity of trypsin by the compound at concentration between 20 mM and 40 mM

T1 sequence (P07477 whole entry): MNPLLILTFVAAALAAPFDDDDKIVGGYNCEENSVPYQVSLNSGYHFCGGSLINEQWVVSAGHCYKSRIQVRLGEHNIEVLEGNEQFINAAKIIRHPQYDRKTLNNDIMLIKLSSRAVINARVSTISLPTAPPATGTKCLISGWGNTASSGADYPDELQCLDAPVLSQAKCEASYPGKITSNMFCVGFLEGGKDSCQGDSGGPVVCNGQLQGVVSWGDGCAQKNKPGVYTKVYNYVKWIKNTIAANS
Sequence of Plasminogen (P00747 97-580 limits assumed): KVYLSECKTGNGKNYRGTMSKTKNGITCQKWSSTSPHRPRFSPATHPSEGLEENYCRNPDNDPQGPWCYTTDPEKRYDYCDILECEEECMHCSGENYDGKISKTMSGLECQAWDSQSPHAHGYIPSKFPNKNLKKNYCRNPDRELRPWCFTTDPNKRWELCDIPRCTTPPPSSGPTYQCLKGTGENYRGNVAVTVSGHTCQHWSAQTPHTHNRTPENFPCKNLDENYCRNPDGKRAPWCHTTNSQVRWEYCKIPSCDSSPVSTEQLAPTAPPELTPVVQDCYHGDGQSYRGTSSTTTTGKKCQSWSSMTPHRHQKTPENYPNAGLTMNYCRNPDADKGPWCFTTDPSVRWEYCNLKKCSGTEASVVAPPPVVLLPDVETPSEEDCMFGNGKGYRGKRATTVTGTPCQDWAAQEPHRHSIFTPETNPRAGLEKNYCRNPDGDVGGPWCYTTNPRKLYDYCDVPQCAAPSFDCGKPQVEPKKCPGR
Sequence of Plasminogen (P00747 581-810 limits assumed): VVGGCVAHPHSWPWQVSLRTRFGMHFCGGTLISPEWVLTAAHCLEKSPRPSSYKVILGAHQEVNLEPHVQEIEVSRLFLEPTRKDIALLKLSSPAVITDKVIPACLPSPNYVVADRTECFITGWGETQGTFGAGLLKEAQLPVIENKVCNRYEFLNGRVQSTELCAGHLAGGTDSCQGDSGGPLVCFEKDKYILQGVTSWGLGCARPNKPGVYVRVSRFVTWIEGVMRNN

## N=C(N)N1CCC[C@H](NC(=O)C2CC3CCC(O)CC3N2C(=O)[C@@H](Cc2ccc(O)cc2)NC(=O)[C@H](O)Cc2ccc(OS(=O)(=O)O)cc2)C1O (stereo not given in full)
Serine protease 1 [1]
  IC50: 273 nM
Plasminogen
  IC50: 409 nM
Prothrombin
  IC50: 54.6 nM

## CCC(C)C(NC(=O)CCc1ccc(O)cc1)C(=O)N1CCN(CCOC(=O)C2CCCN2)CC1 (stereo not given)
Serine protease 1 [2]
  Increase: 70%

## CC[C@H](C)[C@H](NC(=O)C(O)Cc1ccc(O)c(Cl)c1)C(=O)N1C2CC(OS(=O)(=O)O)CCC2C[C@H]1C(=O)NCCCCN=C(N)N (stereo not given in full)
Serine protease 1 [1]
  IC50: 871 nM
Plasminogen
  IC50: 8710 nM
Prothrombin
  IC50: 10200 nM

## CC[C@H](C)[C@H](NC(=O)C(O)Cc1ccc(O)cc1)C(=O)N1C2CC(OS(=O)(=O)O)CCC2C[C@H]1C(=O)NCCCCN=C(N)N (stereo not given in full)
Serine protease 1 [1]
  IC50: 916 nM
Plasminogen
  IC50: 10700 nM
Prothrombin
  IC50: 15300 nM
